From the supplement of paper PMC10307832

Key:
Test in all cases: relative viability (nuclei count vs DMSO), 5 days (fraction); higher = more cells survive
Lestaurtinib + Alpelisib = compound: C[C@]12O[C@H](C[C@]1(O)CO)n1c3ccccc3c3c4c(c5c6ccccc6n2c5c31)CNC4=O [Lestaurtinib] + Cc1nc(NC(=O)N2CCC[C@H]2C(N)=O)sc1-c1ccnc(C(C)(C)C(F)(F)F)c1 [Alpelisib] (partner 2 µM)
Method in brief: (§1)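 Relative viability divides the nuclei count in treated wells by that in vehicle wells. Lung cancer cell lines were seeded in 1536-well plates, dosed by pin tool the next day, and fixed and stained after 5 days in one step with final 0.05% Triton X-100, 1% formaldehyde and 1 ug/ml Hoechst. Dosing was a single drug or a fixed anchor-drug dose plus five library-drug doses (not always all listed) in √10 steps, and values are medians of duplicate plates imaged at 4×.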

[1] = compound: C[C@]12O[C@H](C[C@]1(O)CO)n1c3ccccc3c3c4c(c5c6ccccc6n2c5c31)CNC4=O [Lestaurtinib] + C[C@@H](Oc1cc(-c2cnn(C3CCNCC3)c2)cnc1N)c1c(Cl)ccc(F)c1Cl [Crizotinib] (partner 1 µM)
Method in brief: as §1

Lestaurtinib + OSI-027 = compound: C[C@]12O[C@H](C[C@]1(O)CO)n1c3ccccc3c3c4c(c5c6ccccc6n2c5c31)CNC4=O [Lestaurtinib] + COc1cccc2cc(-c3nc([C@H]4CC[C@H](C(=O)O)CC4)n4ncnc(N)c34)[nH]c12 [OSI-027] (partner 0.5 µM)
Method in brief: as §1

Lestaurtinib + Foretinib = compound: C[C@]12O[C@H](C[C@]1(O)CO)n1c3ccccc3c3c4c(c5c6ccccc6n2c5c31)CNC4=O [Lestaurtinib] + COc1cc2c(Oc3ccc(NC(=O)C4(C(=O)Nc5ccc(F)cc5)CC4)cc3F)ccnc2cc1OCCCN1CCOCC1 [Foretinib] (partner 0.25 µM)
Method in brief: as §1

Cell Line | relative viability (Lestaurtinib + Alpelisib; first compound 0.005 µM) | relative viability (Lestaurtinib + Alpelisib; first compound 0.01581 µM) | relative viability (Lestaurtinib + Alpelisib; first compound 0.05 µM) | relative viability (Lestaurtinib + Alpelisib; first compound 0.1581 µM) | relative viability (Lestaurtinib + Alpelisib; first compound 0.5 µM) | relative viability ([1]; first compound 0.005 µM) | relative viability ([1]; first compound 0.01581 µM) | relative viability ([1]; first compound 0.05 µM) | relative viability ([1]; first compound 0.1581 µM) | relative viability ([1]; first compound 0.5 µM) | relative viability (Lestaurtinib + OSI-027; first compound 0.005 µM) | relative viability (Lestaurtinib + OSI-027; first compound 0.01581 µM) | relative viability (Lestaurtinib + OSI-027; first compound 0.1581 µM) | relative viability (Lestaurtinib + OSI-027; first compound 0.5 µM) | relative viability (Lestaurtinib + Foretinib; first compound 0.005 µM) | relative viability (Lestaurtinib + Foretinib; first compound 0.01581 µM) | relative viability (Lestaurtinib + Foretinib; first compound 0.05 µM) | relative viability (Lestaurtinib + Foretinib; first compound 0.1581 µM) | relative viability (Lestaurtinib + Foretinib; first compound 0.5 µM) | relative viability (Lestaurtinib + OSI-027; first compound 0.05 µM)
201T | 1.04 | 1.03 | 1.02 | 0.933 | 0.693 | 1.09 | 1.03 | 1.08 | 1.08 | 0.903 | 0.766 | 0.982 | 0.63 | 0.447 | 1.13 | 1.21 | 1.17 | 1.14 | 0.356 | 
A549 | 0.802 | 0.638 | 0.518 | 0.263 | 0.0616 | 0.77 | 0.771 | 0.227 | 0.183 | 0.0593 |  |  |  |  | 1.09 | 1.07 | 0.579 | 0.301 | 0.169 | 
A-427 | 1.14 | 1.16 | 0.952 | 0.571 | 0.4 | 0.999 | 0.842 | 0.501 | 0.411 | 0.125 | 0.473 | 0.402 | 0.233 | 0.146 | 1.03 | 1.04 | 0.668 | 0.4 | 0.154 | 0.257
ABC-1 | 1.06 | 1.02 | 0.845 | 0.658 | 0.262 | 1.15 | 1.58 | 0.92 | 0.882 | 0.26 | 0.505 | 0.65 | 0.456 | 0.175 | 1.04 | 1.33 | 0.991 | 0.962 | 0.204 | 0.342
BEN | 1.09 | 1.31 | 0.852 | 0.722 | 0.446 | 0.902 | 1.1 | 0.879 | 0.687 | 0.29 | 0.463 | 0.313 | 0.298 | 0.196 | 0.728 | 0.803 | 0.478 | 0.559 | 0.224 | 0.3
CAL-12T | 1.12 | 1.3 | 1.19 | 0.502 | 0.385 | 0.555 | 0.747 | 0.409 | 0.487 | 0.272 | 0.699 | 0.698 | 0.36 | 0.278 | 1.25 | 1.22 | 1.03 | 1.13 | 0.696 | 0.515
COR-L23 | 0.716 | 0.702 |  | 0.478 | 0.192 | 0.707 | 0.763 |  | 0.489 | 0.161 | 0.612 | 0.933 | 0.395 | 0.343 | 1.03 | 0.908 | 0.8 | 0.825 | 0.391 | 0.281
COR-L 105 | 1.07 | 0.926 | 0.773 | 0.583 | 0.248 | 0.703 | 1.02 | 0.684 | 0.618 | 0.233 | 0.616 | 0.696 | 0.441 | 0.23 | 1.29 | 1.19 | 1.27 | 1.18 | 0.669 | 0.565
Calu-6 | 1.05 | 0.873 | 0.501 | 0.381 | 0.164 | 0.753 | 0.784 | 0.282 | 0.293 | 0.16 |  |  |  |  | 0.868 | 0.979 | 0.499 | 0.482 | 0.207 | 
ChaGo-K-1 |  |  |  |  |  | 1.25 | 1.33 | 0.855 | 0.778 | 0.381 | 0.608 | 0.626 | 0.376 | 0.373 | 0.946 | 1.04 | 0.828 | 0.788 | 0.373 | 0.5
EBC-1 | 0.851 | 0.948 | 0.658 | 0.624 | 0.298 | 0.182 | 0.225 | 0.183 | 0.184 | 0.175 |  |  |  |  | 0.109 | 0.105 | 0.114 | 0.11 | 0.112 | 
EKVX | 0.892 | 1.03 | 0.938 | 0.743 | 0.519 | 0.855 | 1.11 | 0.945 | 0.892 | 0.551 | 0.773 | 0.697 | 0.717 | 0.602 | 0.681 | 0.752 | 0.75 | 0.925 | 0.656 | 0.79
EMC-BAC-2 | 0.786 | 0.76 | 0.541 | 0.398 | 0.216 | 0.722 | 0.76 | 0.599 | 0.569 | 0.264 | 0.38 | 0.365 | 0.308 | 0.263 | 0.908 | 0.737 | 0.78 | 0.382 | 0.29 | 0.363
EPLC-272H | 0.896 | 0.917 | 0.575 | 0.522 | 0.556 | 0.939 | 0.65 | 0.458 | 0.574 | 0.581 | 0.288 | 0.278 | 0.223 | 0.166 | 0.542 | 0.538 | 0.282 | 0.325 | 0.126 | 0.222
